# Publication PMC13044524 (Molecular Cancer Therapeutics, 2025)
# Tests used:
# [1] = system: MCF-7 cells; test: Cell proliferation assay, MCF-7; format: cell-based; conditions: Homo sapiens, MCF7, 144 h, read-out: IC50 E2-mediated proliferation
# [2] = system: uterine tissue; test: Rat uterine wet weight assay; format: in vivo, Sprague–Dawley CD-IGS rats; conditions: immature rats; for uterine wet weight (UWW): once daily for 3 days; for epithelia height of uterine tissue (histologic staining): 3 days, compared with vehicle
# [3] = system: bone (femur and tibia) of OVX mice; test: Osteoporosis; format: in vivo, C57BL/6 mice; conditions: 12 weeks of treatment
SMILES,IC50 [1],uterine wet weight (UWW) [2],bone mineral density (BMD) of femur and tibia [3],epithelia height of uterine tissue (histologic staining) [2]
C[C@]12CC[C@@H]3c4ccc(O)cc4C[C@@H](CCCCCCCCC[S+]([O-])CCCC(F)(F)C(F)(F)F)[C@H]3[C@@H]1CC[C@@H]2O (stereo partly drawn) [Fulvestrant],0.2 nM,seemed to decrease uterine weight,further decreased BMD,–
"C[C@@H]1Cc2c([nH]c3ccccc23)[C@@H](c2c(F)cc(/C=C/C(=O)O)cc2F)N1CC(C)(C)F [AZD9496, (E)-3-(3,5-Difluoro-4-((1R,3R)-2-(2-fluoro-2-methylpropyl)-3-methyl-2,3,4,9-tetrahydro-1H-pyrido[3,4-b]indol-1-yl)phenyl)acrylic acid]",–,did not affect uterine weight significantly,–,slightly increased
CC/C(=C(\c1ccccc1)c1ccc(OCCN(C)C)cc1)c1ccccc1 [Tamoxifen],–,significantly increase UWW,significantly increased BMD,dramatically increased
CCNCCc1ccc(CN(CC)c2cc(OC)ccc2[C@@H]2CCc3cc(O)ccc3C2)cc1 [elacestrant],0.3 nM,–,–,–
